{"source": "patent US7271147B2", "about": "“Antibiotics, tripropeptins and process for producing the same” (Zaidan Hojin Biseibutsu Kagaku Kenkyu Kai, priority 2000, dated 2007)", "assay_type_in_all_cases": "cell-based", "key": {"[1]": {"tested_on": "Corynebacterium bovis 1810", "test": "Minimum growth inhibitory concentration, agar serial dilution", "details": "Mueller-Hinton agar"}, "Micrococcus luteus FDA16": {"tested_on": "Micrococcus luteus FDA16", "test": "Minimum growth inhibitory concentration, agar serial dilution", "details": "Mueller-Hinton agar"}, "[2]": {"tested_on": "Enterococcus faecalis NCTC 12201 (vancomycin-resistant)", "test": "Minimum growth inhibitory concentration, agar serial dilution", "details": "NCTC12201, 5% sheep blood-supplemented Mueller-Hinton agar"}, "Shigella sonnei JS11746": {"tested_on": "Shigella sonnei JS11746", "test": "Minimum growth inhibitory concentration, agar serial dilution", "details": "Mueller-Hinton agar", "procedure": "(§1) Minimum growth inhibitory concentrations (μg/ml) of tripropeptin Z against a variety of microorganisms were measured on a Mueller-Hinton agar medium (manufactured by Difco Laboratories) or on a 5% sheep blood-supplemented Mueller-Hinton agar medium (manufactured by Difco Laboratories) for Enterococcus, by a serial dilution method according to the standard method as provided by Japanese Society of Chemotherapy.\nas §1, with “A” for “Z”\nas §1, with “B” for “Z”\nas §1, with “C” for “Z”\nas §1, with “D” for “Z”"}, "[3]": {"tested_on": "Enterococcus faecium JCM5804", "test": "Minimum growth inhibitory concentration, agar serial dilution", "details": "5% sheep blood-supplemented Mueller-Hinton agar"}, "[4]": {"tested_on": "Enterococcus faecium NCTC 12202 (vancomycin-resistant)", "test": "Minimum growth inhibitory concentration, agar serial dilution", "details": "NCTC12202, 5% sheep blood-supplemented Mueller-Hinton agar"}, "[5]": {"tested_on": "Staphylococcus aureus MS16526 (methicillin-resistant)", "test": "Minimum growth inhibitory concentration, agar serial dilution", "details": "Mueller-Hinton agar"}, "[6]": {"tested_on": "Staphylococcus aureus TY-04282 (methicillin-resistant)", "test": "Minimum growth inhibitory concentration, agar serial dilution", "details": "Mueller-Hinton agar"}, "[7]": {"tested_on": "Staphylococcus aureus FDA209P", "test": "Minimum growth inhibitory concentration, agar serial dilution", "details": "Mueller-Hinton agar"}, "[8]": {"tested_on": "Klebsiella pneumoniae PCI602", "test": "Minimum growth inhibitory concentration, agar serial dilution", "details": "Mueller-Hinton agar"}, "[9]": {"tested_on": "Staphylococcus aureus TY-03456 (methicillin-resistant)", "test": "Minimum growth inhibitory concentration, agar serial dilution", "details": "Staphylococcus aureus TY-03456 (methicillin-resistant); Mueller-Hinton agar; read-out: Minimum growth inhibitory concentration"}, "[10]": {"tested_on": "Staphylococcus aureus MS16460 (methicillin-resistant)", "test": "Minimum growth inhibitory concentration, agar serial dilution", "details": "read-out: Minimum growth inhibitory concentration"}, "[11]": {"tested_on": "Enterococcus faecalis NCTC 12203 (vancomycin-resistant)", "test": "Minimum growth inhibitory concentration, agar serial dilution", "details": "NCTC12203, 5% sheep blood-supplemented Mueller-Hinton agar"}, "[12]": {"tested_on": "Staphylococcus aureus TY-00933 (methicillin-resistant)", "test": "Minimum growth inhibitory concentration, agar serial dilution", "details": "Staphylococcus aureus TY-00933 (methicillin-resistant); Mueller-Hinton agar; read-out: Minimum growth inhibitory concentration"}, "[13]": {"tested_on": "Staphylococcus aureus MS9610 (multi-drug-resistant)", "test": "Minimum growth inhibitory concentration, agar serial dilution", "details": "Mueller-Hinton agar"}, "Bacillus subtilis PCI219": {"tested_on": "Bacillus subtilis PCI219", "test": "Minimum growth inhibitory concentration, agar serial dilution", "details": "Mueller-Hinton agar"}, "[14]": {"tested_on": "Staphylococcus aureus TY-03454 (methicillin-resistant)", "test": "Minimum growth inhibitory concentration, agar serial dilution", "details": "Mueller-Hinton agar"}, "[15]": {"tested_on": "Bacillus cereus ATCC10702", "test": "Minimum growth inhibitory concentration, agar serial dilution", "details": "Bacillus cereus ATCC10702; Mueller-Hinton agar; read-out: Minimum growth inhibitory concentration"}, "[16]": {"tested_on": "Staphylococcus aureus Smith", "test": "Minimum growth inhibitory concentration, agar serial dilution", "details": "Mueller-Hinton agar"}, "[17]": {"tested_on": "Enterococcus faecalis JCM5803", "test": "Minimum growth inhibitory concentration, agar serial dilution", "details": "5% sheep blood-supplemented Mueller-Hinton agar"}, "[18]": {"tested_on": "Staphylococcus aureus MS16497 (methicillin-resistant)", "test": "Minimum growth inhibitory concentration, agar serial dilution", "details": "Mueller-Hinton agar"}, "[19]": {"tested_on": "Enterococcus faecium NCTC 12204 (vancomycin-resistant)", "test": "Minimum growth inhibitory concentration, agar serial dilution", "details": "NCTC12204, 5% sheep blood-supplemented Mueller-Hinton agar"}, "Bacillus anthracis": {"tested_on": "Bacillus anthracis", "test": "microbe, parasite or virus in culture", "details": "read-out: Minimum growth inhibitory concentration"}, "Salmonella typhi T-63": {"tested_on": "Salmonella typhi T-63", "test": "Minimum growth inhibitory concentration, agar serial dilution", "details": "Salmonella enterica, Mueller-Hinton agar"}}, "note": "Where two headings read alike, the source gives them in different places. Starred links: 1 amine or outer side, 2 acyl side, 3 side chain; linkers in the order of their positions; H or OH if unused. Positions of bridges follow the written chain, without caps; N, C: chain ends. Non-standard residues stand in square brackets, D forms with d. Residues, ends and D or L forms follow the SMILES beside them. ξ: configuration not given here. X6 = CC(C)CCCCCCCCC(CC(=O)[*:1])O[*:2]; X5 = CC(C)CCCCCCCC(CC(=O)[*:1])O[*:2]; ξAsp(3ξ-OH) = NC(C(=O)O)C(O)C(=O)O; X1 = O=C(C1C(O)CCN1[*:1])[*:2]", "data": [{"compound": "CC(C)CCCCCCCC1CC(=O)NC(C(C)O)C(=O)N2CCCC2C(=O)N2CCCC2C(=O)NC(CCCNC(=N)N)C(=O)NC(C(O)C(=O)O)C(=O)NC(CO)C(=O)N2CCC(O)C2C(=O)NC(C(O)C(=O)O)C(=O)O1", "note": "(stereo not drawn) [Tripropeptin A] (TPPR[ξAsp(3ξ-OH)]S[X1][ξAsp(3ξ-OH)]; linker N-C via X5; configuration not given here)", "values": [{"measurement": "MIC", "setting": "[1]", "result": 1.56, "unit": "µg/mL"}, {"measurement": "MIC", "setting": "Micrococcus luteus FDA16", "result": "< 0.39", "unit": "µg/mL"}, {"measurement": "MIC", "setting": "[2]", "result": 50, "unit": "µg/mL"}, {"measurement": "MIC", "setting": "Shigella sonnei JS11746", "result": "> 100", "unit": "µg/mL"}, {"measurement": "MIC", "setting": "[3]", "result": 50, "unit": "µg/mL"}, {"measurement": "MIC", "setting": "[4]", "result": 50, "unit": "µg/mL"}, {"measurement": "MIC", "setting": "[5]", "result": 3.13, "unit": "µg/mL"}, {"measurement": "MIC", "setting": "[6]", "result": 6.25, "unit": "µg/mL"}, {"measurement": "MIC", "setting": "[7]", "result": 1.56, "unit": "µg/mL"}, {"measurement": "MIC", "setting": "[8]", "result": "> 50", "unit": "µg/mL"}, {"measurement": "MIC", "setting": "[9]", "result": 6.25, "unit": "µg/mL"}, {"measurement": "MIC", "setting": "[10]; Staphylococcus aureus MS16460 (methicillin-resistant), Mueller-Hinton agar", "result": 6.25, "unit": "µg/mL"}, {"measurement": "MIC", "setting": "[11]", "result": 50, "unit": "µg/mL"}, {"measurement": "MIC", "setting": "[12]", "result": 6.25, "unit": "µg/mL"}, {"measurement": "MIC", "setting": "[13]", "result": 6.25, "unit": "µg/mL"}, {"measurement": "MIC", "setting": "Bacillus subtilis PCI219", "result": 3.13, "unit": "µg/mL"}, {"measurement": "MIC", "setting": "[14]", "result": 6.25, "unit": "µg/mL"}, {"measurement": "MIC", "setting": "[15]", "result": 12.3, "unit": "µg/mL"}, {"measurement": "MIC", "setting": "[16]", "result": 0.78, "unit": "µg/mL"}, {"measurement": "MIC", "setting": "[17]", "result": 50, "unit": "µg/mL"}, {"measurement": "MIC", "setting": "[18]", "result": 6.25, "unit": "µg/mL"}, {"measurement": "MIC", "setting": "[19]", "result": 50, "unit": "µg/mL"}, {"measurement": "MIC", "setting": "Bacillus anthracis", "result": 25, "unit": "µg/mL"}, {"measurement": "MIC", "setting": "Salmonella typhi T-63", "result": "> 50", "unit": "µg/mL"}]}, {"compound": "CC(C)CCCCCCCCC1CC(=O)NC(C(C)O)C(=O)N2CCCC2C(=O)N2CCCC2C(=O)NC(CCCNC(=N)N)C(=O)NC(C(O)C(=O)O)C(=O)NC(CO)C(=O)N2CCC(O)C2C(=O)NC(C(O)C(=O)O)C(=O)O1", "note": "(stereo not drawn) [Tripropeptin B] (TPPR[ξAsp(3ξ-OH)]S[X1][ξAsp(3ξ-OH)]; linker N-C via X6; configuration not given here)", "values": [{"measurement": "MIC", "setting": "[1]", "result": 0.78, "unit": "µg/mL"}, {"measurement": "MIC", "setting": "Micrococcus luteus FDA16", "result": 0.2, "unit": "µg/mL"}, {"measurement": "MIC", "setting": "[2]", "result": 12.5, "unit": "µg/mL"}, {"measurement": "MIC", "setting": "Shigella sonnei JS11746", "result": "> 100", "unit": "µg/mL"}, {"measurement": "MIC", "setting": "[3]", "result": 25, "unit": "µg/mL"}, {"measurement": "MIC", "setting": "[4]", "result": 25, "unit": "µg/mL"}, {"measurement": "MIC", "setting": "[5]", "result": 3.13, "unit": "µg/mL"}, {"measurement": "MIC", "setting": "[6]", "result": 3.13, "unit": "µg/mL"}, {"measurement": "MIC", "setting": "[7]", "result": 1.56, "unit": "µg/mL"}, {"measurement": "MIC", "setting": "[8]", "result": "> 100", "unit": "µg/mL"}, {"measurement": "MIC", "setting": "[9]", "result": 3.13, "unit": "µg/mL"}, {"measurement": "MIC", "setting": "[10]; Staphylococcus aureus", "result": 6.25, "unit": "µg/mL"}, {"measurement": "MIC", "setting": "[11]", "result": 50, "unit": "µg/mL"}, {"measurement": "MIC", "setting": "[12]", "result": 3.13, "unit": "µg/mL"}, {"measurement": "MIC", "setting": "[13]", "result": 3.13, "unit": "µg/mL"}, {"measurement": "MIC", "setting": "Bacillus subtilis PCI219", "result": 1.56, "unit": "µg/mL"}, {"measurement": "MIC", "setting": "[14]", "result": 3.13, "unit": "µg/mL"}, {"measurement": "MIC", "setting": "[15]", "result": "> 100", "unit": "µg/mL"}, {"measurement": "MIC", "setting": "[16]", "result": 1.56, "unit": "µg/mL"}, {"measurement": "MIC", "setting": "[17]", "result": 25, "unit": "µg/mL"}, {"measurement": "MIC", "setting": "[18]", "result": 3.13, "unit": "µg/mL"}, {"measurement": "MIC", "setting": "[19]", "result": 25, "unit": "µg/mL"}, {"measurement": "MIC", "setting": "Bacillus anthracis", "result": 6.25, "unit": "µg/mL"}, {"measurement": "MIC", "setting": "Salmonella typhi T-63", "result": "> 100", "unit": "µg/mL"}]}]}
